Source: publication PMC3048469 (FEBS letters, 2011)
Like-named read-outs stand apart in the source and are kept apart here.

Target: Rv1086 (Mycobacterium tuberculosis, UniProt P9WFF5)
Format: biochemical
Conditions: 5 mM MgCl2, pH 7.0, 37 °C

Rv1086, sequence (P9WFF5 whole entry): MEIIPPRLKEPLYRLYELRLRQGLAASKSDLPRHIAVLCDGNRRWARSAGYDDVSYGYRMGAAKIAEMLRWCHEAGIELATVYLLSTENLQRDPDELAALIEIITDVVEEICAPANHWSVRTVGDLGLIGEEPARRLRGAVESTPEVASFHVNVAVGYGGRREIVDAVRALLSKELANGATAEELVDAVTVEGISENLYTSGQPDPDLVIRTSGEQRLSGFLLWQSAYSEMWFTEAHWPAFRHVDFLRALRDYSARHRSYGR

Compound	GC-MS of dephosphorylated product (100 μM DMAPP, 100 μM IPP, 0.3% Triton X-100)	GC-MS of dephosphorylated product (100 μM GPP, co-substrate IPP)
CC(C)=CCOP(=O)(O)OP(=O)(O)O [DMAPP]	(Z,E)-FPP also was produced by Rv1086 from IPP and DMAPP in the absence of Rv0989	–
CC(C)=CCC/C(C)=C/COP(=O)(O)OP(=O)(O)O [GPP]	–	Rv1086 assayed in the presence of authentic GPP, GPP synthesized by Rv0989c, or DMAPP
